Values quoted from earlier work as cited in patent publication US8673347B2 (Creabilis Therapeutics S.p.A., priority 2005, dated 2014).

Key:
[1] = target: TrkA (Homo sapiens, UniProt P04629); conditions: cited from earlier work
[2] = target: MLK3 (Homo sapiens, UniProt Q16584); conditions: cited from earlier work
Chain of MLK3 (Q16584 whole entry, species assumed): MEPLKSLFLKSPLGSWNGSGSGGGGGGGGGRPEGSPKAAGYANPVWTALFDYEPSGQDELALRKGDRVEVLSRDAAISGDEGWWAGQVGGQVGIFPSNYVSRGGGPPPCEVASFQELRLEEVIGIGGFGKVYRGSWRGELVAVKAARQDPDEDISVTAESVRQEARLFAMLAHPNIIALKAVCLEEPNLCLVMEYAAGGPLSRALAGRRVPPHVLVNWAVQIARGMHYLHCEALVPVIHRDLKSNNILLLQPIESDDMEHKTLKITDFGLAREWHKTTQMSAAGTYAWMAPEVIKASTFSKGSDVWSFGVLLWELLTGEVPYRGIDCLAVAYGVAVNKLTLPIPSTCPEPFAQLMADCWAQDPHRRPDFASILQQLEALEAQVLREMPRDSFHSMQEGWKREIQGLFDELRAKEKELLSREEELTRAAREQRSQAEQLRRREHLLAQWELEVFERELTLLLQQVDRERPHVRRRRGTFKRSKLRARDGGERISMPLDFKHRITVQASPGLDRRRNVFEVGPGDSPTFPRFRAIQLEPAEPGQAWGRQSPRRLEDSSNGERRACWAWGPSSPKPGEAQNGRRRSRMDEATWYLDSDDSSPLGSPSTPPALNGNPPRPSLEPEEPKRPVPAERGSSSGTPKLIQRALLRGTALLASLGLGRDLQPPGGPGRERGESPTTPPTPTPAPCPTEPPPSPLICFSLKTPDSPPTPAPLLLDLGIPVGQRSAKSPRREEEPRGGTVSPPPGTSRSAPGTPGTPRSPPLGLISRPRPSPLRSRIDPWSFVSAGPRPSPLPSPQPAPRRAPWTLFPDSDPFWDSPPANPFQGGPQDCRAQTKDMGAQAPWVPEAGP

Chain of TrkA (P04629 33-796, species assumed): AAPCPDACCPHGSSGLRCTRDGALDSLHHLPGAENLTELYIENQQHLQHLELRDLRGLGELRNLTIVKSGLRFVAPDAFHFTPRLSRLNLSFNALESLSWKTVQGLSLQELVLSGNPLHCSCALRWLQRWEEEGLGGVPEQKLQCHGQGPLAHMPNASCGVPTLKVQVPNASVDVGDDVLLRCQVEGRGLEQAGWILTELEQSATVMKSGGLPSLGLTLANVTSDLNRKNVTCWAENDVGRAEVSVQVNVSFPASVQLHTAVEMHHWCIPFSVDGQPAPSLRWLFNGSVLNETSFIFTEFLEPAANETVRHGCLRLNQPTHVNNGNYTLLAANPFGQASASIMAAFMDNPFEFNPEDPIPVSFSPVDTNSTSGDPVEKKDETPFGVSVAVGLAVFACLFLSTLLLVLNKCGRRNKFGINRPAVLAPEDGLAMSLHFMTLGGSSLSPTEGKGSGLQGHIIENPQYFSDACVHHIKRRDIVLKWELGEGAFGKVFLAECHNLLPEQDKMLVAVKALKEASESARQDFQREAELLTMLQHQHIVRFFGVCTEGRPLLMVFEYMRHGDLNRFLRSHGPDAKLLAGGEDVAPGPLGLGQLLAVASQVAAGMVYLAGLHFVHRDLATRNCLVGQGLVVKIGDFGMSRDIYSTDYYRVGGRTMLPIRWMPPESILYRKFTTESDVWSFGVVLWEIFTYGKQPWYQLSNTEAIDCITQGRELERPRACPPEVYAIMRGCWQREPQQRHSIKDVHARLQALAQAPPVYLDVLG

In the case of `CCSCc1ccc2c(c1)c1c3c(c4c5cc(CSCC)ccc5n5c4c1n2[C@H]1C[C@](O)(C(=O)OC)[C@]5(C)O1)CNC3=O` [CEP1347], the TrkA inhibition [1] is given as “does not inhibit TrkA” and the “inhibition of MAPKKKs, including MLK3” value [2] is given as “directly inhibit”.
